# Like-named read-outs stand apart in the source and are kept apart here.
# Tests used:
# COX-1 = target: T1, COX-1 (Sus scrofa, UniProt A0A287ANF9); assay: In-vitro test for COX-1 inhibition: fluorimetric quantification of malonaldehyde (MDA) in A23187-activated pig platelet suspension; format: cell-based; conditions: for inhibition of COX-1 (in words): comparison of both isoenzymes
# T1 construct: A platelet suspension obtained from pig's blood is preincubated with the test substance; endogenous in cells; host or cells: platelets from pig's blood
# Experimental: In-vitro Test Procedure for the Determination of COX-1 Inhibition
# The inhibition of the cyclooxygenase pathway is carried out by fluorimetric quantification of malonaldehyde (MA). This condenses in the acidic medium with twice the molar amount of thiobarbituric acid to give a red pigment dye, which has a fluorescence at λExcitation: 533 nm, λEmission: 550 nm.
# A platelet suspension obtained from pig's blood is preincubated with the test substance for 10 min at 37° C. The concentration of the suspension should be 8×10^8 cells/ml. The arachidonic acid cascade is then activated by addition of the antibiotic calcium ionophore A23187 ([…]). After a further 10 min at 37° C., the reaction is stopped using a trichloroacetic acid solution. The samples are centrifuged and the supernatant is incubated with thiobarbituric acid for 30 min at 70° C. After cooling (30 min at room temperature), the samples are measured fluorimetrically at 533/550 nm and the IC50 values of the test compounds are determined therefrom by means of a calibration curve.
# COX-2 = target: T2, COX-2 (Homo sapiens, UniProt P35354); assay: In-vitro test for COX-2 inhibition: PGE2 ELISA in LPS-stimulated human monocytes; format: cell-based; conditions: for IC50: Table 18, LPS-stimulated human monocytes, PGE2; for inhibition of COX-2 (in words): comparison of both isoenzymes
# T2 construct: endogenous in cells; host or cells: LPS-stimulated human monocytes (Ficoll extraction)
# T2 sequence (P35354 18-604): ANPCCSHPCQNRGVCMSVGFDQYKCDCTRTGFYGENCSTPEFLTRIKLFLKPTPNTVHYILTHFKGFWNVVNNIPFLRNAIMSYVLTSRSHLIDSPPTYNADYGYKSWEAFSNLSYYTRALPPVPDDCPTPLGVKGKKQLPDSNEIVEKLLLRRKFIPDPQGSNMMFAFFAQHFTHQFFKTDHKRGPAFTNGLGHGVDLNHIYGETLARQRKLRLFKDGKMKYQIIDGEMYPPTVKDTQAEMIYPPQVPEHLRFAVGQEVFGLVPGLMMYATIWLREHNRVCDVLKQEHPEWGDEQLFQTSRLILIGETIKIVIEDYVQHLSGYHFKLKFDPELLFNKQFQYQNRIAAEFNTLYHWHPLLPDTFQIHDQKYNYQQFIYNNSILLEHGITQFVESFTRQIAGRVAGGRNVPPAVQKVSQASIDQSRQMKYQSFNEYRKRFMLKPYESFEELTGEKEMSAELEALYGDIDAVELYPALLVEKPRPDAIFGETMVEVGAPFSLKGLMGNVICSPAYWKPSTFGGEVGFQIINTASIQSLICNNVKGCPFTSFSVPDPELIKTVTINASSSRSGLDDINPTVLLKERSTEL
# Experimental: In-vitro Test Procedure for the Determination of COX-2 Inhibition
# The procedure is carried out on LPS-stimulated human monocytes which have been obtained by Ficoll extraction. The measurement variable used is the PGE2 formed, which is determined by means of ELISA.
# [1] = Table 1, carbamic acid thioesters, pig platelets, read-out: MDA IC50
# [2] = tables 1 to 17, read-out: IC50 values (inhibition of cyclooxygenase-1)
# [3] = read-out: COX-2 inhibition pIC50 (converted)
# [4] = Table 2, sulfanylacetamides, pig platelets, read-out: MDA pIC50 (converted)
# [5] = read-out: COX-2 inhibition IC50
# [6] = Table 8, arylsulfonamides, pig platelets, read-out: MDA pIC50 (converted)
# [7] = Table 9, alkylamides, pig platelets, read-out: MDA pIC50 (converted)
# [8] = Table 7, arylamides, pig platelets, read-out: MDA pIC50 (converted)
# [9] = Table 1, carbamic acid thioesters, pig platelets, read-out: MDA pIC50 (converted)
# T1 sequence (A0A287ANF9 25-600): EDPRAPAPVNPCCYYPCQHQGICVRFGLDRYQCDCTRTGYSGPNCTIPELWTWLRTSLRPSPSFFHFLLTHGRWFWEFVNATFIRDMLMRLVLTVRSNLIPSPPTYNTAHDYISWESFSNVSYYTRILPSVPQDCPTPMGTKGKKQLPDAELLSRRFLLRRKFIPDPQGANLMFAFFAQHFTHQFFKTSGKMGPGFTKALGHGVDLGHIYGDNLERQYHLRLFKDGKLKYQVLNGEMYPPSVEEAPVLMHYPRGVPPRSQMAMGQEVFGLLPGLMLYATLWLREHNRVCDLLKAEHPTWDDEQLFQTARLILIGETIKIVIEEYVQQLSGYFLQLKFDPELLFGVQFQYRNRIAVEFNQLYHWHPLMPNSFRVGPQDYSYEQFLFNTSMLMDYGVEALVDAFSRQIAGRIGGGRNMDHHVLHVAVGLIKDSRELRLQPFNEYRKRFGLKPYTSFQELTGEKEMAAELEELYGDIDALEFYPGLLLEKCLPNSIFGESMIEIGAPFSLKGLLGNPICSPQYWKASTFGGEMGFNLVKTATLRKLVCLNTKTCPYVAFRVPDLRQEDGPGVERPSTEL
structure (smiles),measurement,setting,value
"CCN(CC)C(=O)Sc1nc(-c2ccc(OC)cc2)c(-c2ccc(OC)cc2)[nH]1 [Compound T2, [4,5-Bis(4-methoxyphenyl)-1H-imidazol-2-yl]-N,N-diethylcarbamic acid thioester]",IC50,COX-1; [1],4.8 nM
same,IC50,COX-1; [2],~1 nM
same,IC50,COX-2; [3],2400 nM
"COc1ccc(-c2nc(SCC(=O)N(C)C)[nH]c2-c2ccc(OC)cc2)cc1 [Compound T6, N^1N^1-Dimethyl-2-[4,5-bis(4-methoxyphenyl)-1H-imidazol-2-ylsulfanyl]-acetamide]",IC50,COX-1; [4],10 nM
same,IC50,"COX-1; Table 15, N,N-acetamides, pig platelets, read-out: MDA pIC50 (converted)",10 nM
same,IC50,COX-2; [3],2290 nM
"COc1ccc(-c2nc(SC(C(C)=O)C(=O)N(C)C)[nH]c2-c2ccc(OC)cc2)cc1 (stereo not shown) [Compound T7, N^1,N^1-Dimethyl-2-[4,5-bis(4-methoxyphenyl)-1H-imidazol-2-ylsufanyl]-3-oxobutanamide]",IC50,COX-1; [4],33.1 nM
same,IC50,COX-2; [5],500 nM
"COc1ccc(-c2nc(SCC(=O)c3ccccc3)[nH]c2-c2ccc(OC)cc2)cc1 [Compound T11, 2-[4,5-Bis(4-methoxyphenyl)-1H-imidazol-2-ylsulfanyl]-1-phenylethan-1-one]",IC50,"COX-1; Table 4, aryl ketones, pig platelets, read-out: MDA IC50",9.5 nM
same,IC50,COX-1; [2],~1 nM
same,IC50,COX-2; [3],257 nM
"COc1ccc(-c2nc(SCCNS(=O)(=O)c3ccc(Cl)cc3)[nH]c2-c2ccc(OC)cc2)cc1 [Compound T18, N-hu 1-{2-[4,5-Bis(4-methoxyphenyl)-1H-imidazol-2-ylsufanyl]ethyl}-4-chlorobenzenesulfonamide]",IC50,COX-1; [6],282 nM
same,IC50,COX-2; [3],3020 nM
"COc1ccc(-c2nc(SCCNS(=O)(=O)c3cc(C(F)(F)F)cc(C(F)(F)F)c3)[nH]c2-c2ccc(OC)cc2)cc1 [Compound T22, N^1-{2-[4,5-Bis(4-methoxyphenyl)-1H-imidazol-2-ylsufanyl]ethyl}-3,5-bis-(trifluoromethyl)benzenesulfonamide]",IC50,COX-1; [6],407 nM
same,IC50,COX-2; [3],1510 nM
"COc1ccc(-c2nc(SCCNS(=O)(=O)c3ccc(NC(C)=O)cc3)[nH]c2-c2ccc(OC)cc2)cc1 [Compound T27, N^1-(4-{2-[4,5-Bis(4-methoxyphenyl)-1H-imidazol-2-ylsufanyl]ethyl-sulfamoyl}phenyl)acetamide]",IC50,COX-1; [6],18.2 nM
same,IC50,COX-2; [3],1200 nM
"COc1ccc(-c2nc(SCCN(C)C(=O)c3ccccc3)[nH]c2-c2ccc(OC)cc2)cc1 [Compound T29, N^1-{2-[4,5-Bis(4-methoxyphenyl)-1H-imidazol-2ylsulfanyl]ethyl}-N^1-1-methylbenzamide]",IC50,"COX-1; Table 17, methyl derivatives, pig platelets, read-out: MDA pIC50 (converted)",20.9 nM
same,inhibition of COX-1 (in words),COX-1,approximately equally high potency
same,IC50,COX-2; [3],10 nM
same,inhibition of COX-2 (in words),COX-2,approximately equally high potency
COc1ccc(-c2nc(SCCN(C)C(=O)c3ccccc3)n(C)c2-c2ccc(OC)cc2)cc1 [Compound T31],IC50,"COX-1; Table 16, dimethyl compounds, pig platelets, read-out: MDA pIC50 (converted)",83.2 nM
same,IC50,COX-2; [5],910 nM
"COc1ccc(-c2nc(SCCNC(C)=O)[nH]c2-c2ccc(OC)cc2)cc1 [Compound T49, N^1-{2-[4,5-Bis(4-methoxyphenyl)-1H-imidazol-2-ylsulfanyl]ethyl}acetamide]",IC50,COX-1; [7],10 nM
same,IC50,COX-2; [3],2690 nM
"COc1ccc(-c2nc(SCCNC(=O)N(C)C)[nH]c2-c2ccc(OC)cc2)cc1 [Compound T57, N^1-{2-[4,5-Bis(4-methoxyphenyl)-1H-imidazol-2-ylsulfanyl]ethyl}-N′,N′-dimethylurea]",IC50,"COX-1; Table 13, urea derivatives, pig platelets, read-out: MDA IC50",78 nM
same,IC50,COX-2; [3],209 nM
"COc1ccc(-c2nc(SCc3ccccn3)[nH]c2-c2ccc(OC)cc2)cc1 [Compound T69, 2-[4,5-Bis(4-methoxyphenyl)-1H-imidazol-2-ylsulfanylmethyl]pyridine]",IC50,"COX-1; Table 5, heteroarylmethyl sulfides, pig platelets, read-out: MDA pIC50 (converted)",100 nM
same,IC50,"COX-1; Table 14, sulfones and their sulfide analogs, pig platelets, read-out: MDA pIC50 (converted)",100 nM
same,IC50,COX-2; [3],240 nM
"CC(=O)NCCSc1nc(-c2ccc(Cl)cc2)c(-c2ccc(Cl)cc2)[nH]1 [Compound T84, N^1-{2-[4,5-Bis(4-chlorophenyl)-1H-imidazol-2-ylsufanyl]ethyl}acetamide]",IC50,COX-1; [7],1100 nM
same,IC50,COX-2; [3],2690 nM
O=C(NCCSc1nc(-c2ccccc2)c(-c2ccccc2)[nH]1)c1ccccc1 [Compound T94],IC50,COX-1; [8],2090 nM
"O=C(NCCSc1nc(-c2ccc(F)cc2)c(-c2ccc(F)cc2)[nH]1)c1ccccc1 [Compound T98, N^1-{2-[4,5-Bis(4-fluorophenyl)-1H-imidazol-2-ylsufanyl]ethyl}benzamide]",IC50,COX-1; [8],1000 nM
"CN(C)C(=O)Sc1nc(-c2ccc(Cl)cc2)c(-c2ccccc2)[nH]1 [Compound T103, [4-(4-Chlorophenyl)-5-phenyl-1H-imidazol-2-yl]-N,N-dimethylcarbamic acid thioester]",IC50,COX-1; [1],7300 nM
"CCN(CC)C(=O)Sc1nc(-c2ccc(Cl)cc2)c(-c2ccccc2)[nH]1 [Compound T104, [4-(4-Chlorophenyl)-5-phenyl-1H-imidazol-2-yl]-N,N-diethylcarbamic acid thioester]",IC50,COX-1; [9],4170 nM
"O=C(NCCSc1nc(-c2ccc(Cl)cc2)c(-c2ccccc2)[nH]1)c1ccccc1 [Compound T106, N^1-{2-[4-(4-Chlorophenyl)-5-phenyl-1H-imidazol-2-ylsufanyl]ethyl}benzamide]",IC50,"COX-1; Table 7, arylamides, pig platelets, read-out: MDA IC50",900 nM
"CCN(CC)C(=O)Sc1nc(-c2ccc(Cl)cc2)c(-c2ccc(OC)cc2)[nH]1 [Compound T108, [4-(4-Chlorophenyl)-5-(4-methoxyphenyl)-1H-imidazol-2-yl]-N N-diethyl-carbamic acid thioester]",IC50,COX-1; [9],158 nM
same,IC50,COX-2; [3],1000 nM
"COc1ccc(-c2c(-c3ccc(Cl)cc3)nc(SCc3ccccn3)n2CC(=O)O)cc1 [Compound T109, 2-[4-(4-Chlorophenyl)-5-(4-methoxyphenyl)-2-(2-pyridylmethylsulfanyl) -1H-imidazol-1-yl]acetic acid]",IC50,"COX-1; Table 6, N1-acetic acid derivatives, pig platelets, read-out: MDA IC50",490 nM
same,inhibition of COX-1 (in words),COX-1,medium-strong inhibition
same,IC50,COX-2; [3],1000 nM
same,inhibition of COX-2 (in words),COX-2,medium-strong inhibition
"COc1ccc(-c2[nH]c(SCCNC(=O)c3ccccc3)nc2-c2ccc(Cl)cc2)cc1 [Compound T110, N^1-{2-[4-(4-Chlorophenyl)-5-(4-methoxyphenv)-1H-imidazol-2-yl-sufanyl]ethyl}benzamide]",IC50,COX-1; [8],3310 nM
"COc1ccc(-c2[nH]c(SCCNS(=O)(=O)c3ccc(Cl)cc3)nc2-c2ccc(Cl)cc2)cc1 [Compound T111, N^1-{2-[4-(4-Chlorophenyl)-5-(4-methoxyphenv)-1H-imidazol-2-yl-sufanyl]ethyl}-4-chlorobenzenesulfonamide]",IC50,COX-1; [6],129 nM
same,IC50,COX-2; [5],800 nM

# Reference: US7223781B2 (Beiersdorf AG, priority 2001, dated 2007)
